Reference: patent US11389415B2, “Methods of regulating cannabinoid receptor activity-related disorders and diseases” (The United States of America as represented by the …, priority 2012, dated 2022)
Read-outs that look alike come from different tables or passages of the source.

Tests used:
A549 = experiment: tumor cell growth, A549; conditions: read-out: IC50 (uM), A549 (NSCLC); Table 6
LN229 = experiment: [3H]-Thymidine incorporation in 96-well plates (Thy), LN229; conditions: read-out: IC50 (uM), LN229 (CNS Cancer)
HT29 [1] = experiment: Thymidine (Thy) 96 well, HT29; conditions: read-out: IC50 (uM), HT29 (Colon Cancer)
MDAMB231 = experiment: tumor cell growth, MDAMB231; conditions: read-out: IC50 (uM), MDAMB231 (Breast C); Table 6
HEP3B [2] = experiment: [3H]-Thymidine incorporation in 96-well plates (Thy), HEP3B; conditions: read-out: IC50 (uM), HEP3B (Liver Cancer)
LN-18 = experiment: tumor cell growth, LN-18; conditions: read-out: IC50 (uM), LN-18 (CNS); Table 6
HCT116 [3] = experiment: tumor cell growth (CTG), HCT116
NCIH460 = experiment: Thymidine (Thy) 96 well, NCIH460; conditions: read-out: IC50 (uM), NCIH460 (NSCLC)
HEPG2 = experiment: tumor cell growth, HEPG2; conditions: read-out: IC50 (uM), HEPG2 (Liver C); Table 6
HCT116 [4] = experiment: Thymidine (Thy) 96 well, HCT116; conditions: read-out: IC50 (uM), HCT116 (Colon Cancer)
U87 = experiment: tumor cell growth, U87; conditions: read-out: IC50 (uM), U87 (CNS); Table 6
HEP3B [5] = experiment: tumor cell growth (CTG), HEP3B
A172 = experiment: tumor cell growth, A172; conditions: read-out: IC50 (uM), A172 (CNS); Table 6
LN-229 = experiment: tumor cell growth (CTG), LN-229 / LN229
PC3 [6] = experiment: [3H]-Thymidine incorporation in 96-well plates (Thy), PC3; conditions: read-out: IC50 (uM), PC3 (Prostrate Cancer)
U251 = experiment: tumor cell growth, U251; conditions: read-out: IC50 (uM), U251 (CNS); Table 6
Du-145 = experiment: tumor cell growth, Du-145; conditions: read-out: IC50 (uM), Du-145 (Prostate C); Table 6
U118 = experiment: tumor cell growth, U118; conditions: read-out: IC50 (uM), U118 (CNS); Table 6
HT29 [7] = experiment: tumor cell growth (CTG), HT29
GL261 = experiment: tumor cell growth, GL261; conditions: read-out: IC50 (uM), GL261 (CNS); Table 6
PANC-1 = experiment: tumor cell growth, PANC-1; conditions: read-out: IC50 (uM), PANC-1 (Pancreatic C); Table 6
H460 = experiment: tumor cell growth (CTG), H460 / NCIH460
PC3 [8] = experiment: tumor cell growth (CTG), PC3
MCF7 = experiment: tumor cell growth, MCF7; conditions: read-out: IC50 (uM), MCF7 (Breast C); Table 6

With `COc1ccc(C[C@@H](C)NC[C@H](O)c2cc(O)cc(O)c2)c2ccccc12` [(R,R′)-MNF, (R,R′)-4′-methoxy-1-naphthylfenoterol] the IC50 (A549) was 23.1 µM, the IC50 (LN229; 96 well Thy 2 days treatment) was 10.4 µM and the IC50 (LN229; 96 well Tye 1 day treatment) was 9.64 µM. For the same molecule, the IC50 (HT29 [1]; 96 well Thy 2 days treatment) was 19.6 µM, the IC50 (HT29 [1]; 96 well Tye 1 day treatment) was 13 µM and the IC50 (MDAMB231) was 33.2 µM. The IC50 (HEP3B [2]; 96 well Thy 2 days treatment) was 10 µM, the IC50 (HEP3B [2]; 96 well Tye 1 day treatment) was 10.7 µM and the IC50 (LN-18) was 29.7 µM. It also gave an IC50 (HCT116 [3]; read-out: IC50 (uM), HCT116 (Colon C), Table 6) of 12.9 µM, an IC50 (HCT116 [3]; read-out: IC50 (uM), HCT116 (Colon Cancer), 96 well CTG 1 day treatment) of 19 µM and an IC50 (HCT116 [3]; read-out: IC50 (uM), HCT116 (Colon Cancer), 96 well CTG 2 days treatment) of 10.5 µM. The IC50 (HCT116 [3]; read-out: IC50 (uM), HCT116 (Colon Cancer), 384well CTG 3 days treatment −1) was 12.9 µM, the IC50 (HCT116 [3]; read-out: IC50 (uM), HCT116 (Colon Cancer), 384well CTG 3 days treatment −2) was 12.2 µM and the IC50 (NCIH460; 96 well Thy 2 days treatment) was 21 µM. It also gave an IC50 (NCIH460; 96 well Tye 1 day treatment) of 25.1 µM, an IC50 (HEPG2) of 28.8 µM and an IC50 (HCT116 [4]; 96 well Thy 2 days treatment) of 11 µM. The IC50 (HCT116 [4]; 96 well Tye 1 day treatment) was 23.8 µM, the IC50 (U87) was 25.7 µM and the IC50 (HEP3B [5]; read-out: IC50 (uM), HEP3B (Liver C), Table 6) was 14.7 µM. It also gave an IC50 (HEP3B [5]; read-out: IC50 (uM), HEP3B (Liver Cancer), 96 well CTG 1 day treatment) of 28.3 µM, an IC50 (HEP3B [5]; read-out: IC50 (uM), HEP3B (Liver Cancer), 96 well CTG 2 days treatment) of 13.5 µM and an IC50 (HEP3B [5]; read-out: IC50 (uM), HEP3B (Liver Cancer), 384well CTG 3 days treatment −1) of 14.7 µM. It also gave an IC50 (HEP3B [5]; read-out: IC50 (uM), HEP3B (Liver Cancer), 384well CTG 3 days treatment −2) of 12.1 µM, an IC50 (A172) of 30.5 µM and an IC50 (LN-229; read-out: IC50 (uM), LN229 (CNS Cancer), 96 well CTG 1 day treatment) of 29.3 µM. For the same molecule, the IC50 (LN-229; read-out: IC50 (uM), LN229 (CNS Cancer), 96 well CTG 2 days treatment) was 15.7 µM, the IC50 (LN-229; read-out: IC50 (uM), LN229 (CNS Cancer), 384well CTG 3 days treatment −1) was 26.8 µM and the IC50 (LN-229; read-out: IC50 (uM), LN-229 (CNS), Table 6) was 26.8 µM. It also gave an IC50 (PC3 [6]; 96 well Thy 2 days treatment) of 10.8 µM, an IC50 (PC3 [6]; 96 well Tye 1 day treatment) of 11 µM and an IC50 (U251) of 26.7 µM. The IC50 (Du-145) was 34.8 µM, the IC50 (U118) was 37 µM and the IC50 (HT29 [7]; read-out: IC50 (uM), HT29 (Colon C), Table 6) was 10.7 µM. For the same molecule, the IC50 (HT29 [7]; read-out: IC50 (uM), HT29 (Colon Cancer), 96 well CTG 1 day treatment) was 30.4 µM, the IC50 (HT29 [7]; read-out: IC50 (uM), HT29 (Colon Cancer), 96 well CTG 2 days treatment) was 11.7 µM and the IC50 (HT29 [7]; read-out: IC50 (uM), HT29 (Colon Cancer), 384well CTG 3 days treatment −1) was 10.7 µM. For the same molecule, the IC50 (GL261) was 21.3 µM, the IC50 (PANC-1) was 33.4 µM and the IC50 (H460; read-out: IC50 (uM), H460 (NSCLC), Table 6) was 11.6 µM. It also gave an IC50 (H460; read-out: IC50 (uM), NCIH460 (NSCLC), 96 well CTG 1 day treatment) of 38.9 µM, an IC50 (H460; read-out: IC50 (uM), NCIH460 (NSCLC), 96 well CTG 2 days treatment) of 15.4 µM and an IC50 (H460; read-out: IC50 (uM), NCIH460 (NSCLC), 384well CTG 3 days treatment −1) of 11.6 µM. For the same molecule, the IC50 (H460; read-out: IC50 (uM), NCIH460 (NSCLC), 384well CTG 3 days treatment −2) was 17.7 µM, the IC50 (PC3 [8]; read-out: IC50 (uM), PC3 (Prostate C), Table 6) was 28.1 µM and the IC50 (PC3 [8]; read-out: IC50 (uM), PC3 (Prostrate Cancer), 96 well CTG 1 day treatment) was 34.5 µM. For the same molecule, the IC50 (PC3 [8]; read-out: IC50 (uM), PC3 (Prostrate Cancer), 96 well CTG 2 days treatment) was 20.4 µM, the IC50 (PC3 [8]; read-out: IC50 (uM), PC3 (Prostrate Cancer), 384well CTG 3 days treatment −1) was 28.1 µM and the IC50 (MCF7) was 37.2 µM.
